# Data: patent publication US6737383B1, “Herbicidal oxadiazolidines” (priority 1999, dated 2004)
# What was measured:
# [1] = system: wild oat; experiment: Test B pre/postemergence wild oat; format: in vivo, Avena fatua; conditions: for Plant response rating, Wild oats: Rate 250 g/ha
# In short: (§1)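 Response is a visual 0-to-10 score relative to untreated plants, where 0 means no effect and 10 means complete control, taken twelve to sixteen days after application. Treatments went onto soil at planting and onto foliage of 1- to 4-leaf plants, using a surfactant-containing non-phytotoxic solvent.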
# [2] = system: blackgrass; experiment: Test B pre/postemergence blackgrass; format: in vivo, Alopecurus myosuroides
# In short: as §1
# [3] = system: surinam grass; experiment: Test B pre/postemergence surinam grass; format: in vivo, Brachiaria decumbens
# In short: as §1
# [4] = system: soybean; experiment: Test B pre/postemergence soybean; format: in vivo, Glycine max
# In short: as §1
# [5] = system: corn; experiment: Test B pre/postemergence corn; format: in vivo, Zea mays
# In short: as §1
# [6] = system: crabgrass; experiment: Test B pre/postemergence crabgrass; format: in vivo, Digitaria sanguinalis
# In short: as §1
# [7] = system: velvetleaf; experiment: Test B pre/postemergence velvetleaf; format: in vivo, Abutilon theophrasti; conditions: for Plant response rating, Velvetleaf: Rate 250 g/ha
# In short: as §1
# [8] = system: duck salad; experiment: Test B flood test duck salad; format: in vivo, Heteranthera limosa
# In short: (§2)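 Read-out is a visual response score from 0 (no effect) to 10 (complete control), assigned by comparison with untreated controls. Treatment was applied at the 2-leaf stage, and plants stayed in the greenhouse for twelve to sixteen days before scoring.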
# [9] = system: bedstraw; experiment: Test B pre/postemergence bedstraw; format: in vivo, Galium aparine
# In short: as §1
# [10] = system: purple nutsedge; experiment: Test B pre/postemergence purple nutsedge; format: in vivo, Cyperus rotundus
# In short: as §1
# [11] = system: smallflower flatsedge; experiment: Test B flood test smallflower flatsedge; format: in vivo, Cyperus difformis
# In short: as §2
# [12] = system: rice; experiment: Test B flood test rice; format: in vivo, Oryza sativa
# In short: as §2
# [13] = system: pigweed; experiment: Test B pre/postemergence pigweed; format: in vivo, Amaranthus retroflexus
# In short: as §1
# [14] = system: sugar beet; experiment: Test B pre/postemergence sugar beet; format: in vivo, Beta vulgaris; conditions: for Plant response rating, Sugarbeets: Rate 250 g/ha
# In short: as §1
# [15] = system: rape; experiment: Test B pre/postemergence rape; format: in vivo, Brassica napus
# In short: as §1
# [16] = system: wheat; experiment: Test B pre/postemergence wheat; format: in vivo, Triticum aestivum; conditions: for Plant response rating, Wheat: Rate 250 g/ha
# In short: as §1
# [17] = Postemergence, Rate 125 g/ha, scale of 0 to 10 where 0 is no effect and 10 is complete control
# [18] = Preemergence, Rate 62 g/ha, scale 0 to 10 (0 no effect, 10 complete control)
# [19] = Preemergence, Rate 125 g/ha, 0 is no effect, 10 is complete control
# [20] = Preemergence, scale of 0 to 10 where 0 is no effect and 10 is complete control
# [21] = Preemergence, Rate 500 g/ha, scale 0 to 10 (0 no effect, 10 complete control)
# [22] = Rate 62 g/ha, Postemergence, scale of 0 to 10 where 0 is no effect and 10 is complete control
# [23] = Postemergence, scale 0 to 10, 0 is no effect, 10 is complete control
# [24] = Rate 500 g/ha, Postemergence, scale 0 to 10, 0 no effect, 10 complete control
# [25] = Postemergence, Rate 250 g/ha, scale 0 to 10, 0 no effect, 10 complete control
# [26] = Preemergence, Rate 125 g/ha, scale 0 to 10 (0 no effect, 10 complete control)
# [27] = Preemergence, Rate 250 g/ha, scale of 0 to 10 where 0 is no effect and 10 is complete control
# [28] = Rate 250 g/ha, Postemergence, scale 0 to 10, 0 is no effect, 10 is complete control
# [29] = Rate 250 g/ha, headed Pre-emergence (flood test species), scale 0 to 10 (0 no effect, 10 complete control)
# [30] = Rate 500 g/ha, headed Pre-emergence (flood test species), scale 0 to 10 (0 no effect, 10 complete control)
# [31] = Rate 1000 g/ha, Pre-emergence (as headed), scale 0 to 10
# [32] = Rate 2000 g/ha, Pre-emergence (as headed), scale 0 to 10
compound,measurement,setting,value
CC(C)N(C(=O)n1oc(=O)n(Cc2cccs2)c1=O)c1ccccc1 [Compound 103],Wild oats plant response rating,[1]; [17],0
same,Wild oats plant response rating,[1]; [18],0
same,Wild oats plant response rating (0 to 10 scale),[1]; [19],0
same,"Plant response rating, Wild oats",[1]; [20],3
same,Wild oats plant response rating,[1]; [21],6
same,Wild oats plant response rating,[1]; [22],0
same,"Plant response rating, Wild oats",[1]; [23],0
same,Wild oats plant response rating,[1]; [24],0
same,Blackgrass plant response rating,[2]; [17],1
same,Blackgrass plant response rating,[2]; [25],4
same,Blackgrass plant response rating,[2]; [18],0
same,"Plant response rating, Blackgrass",[2]; [26],0
same,"Plant response rating, Blackgrass",[2]; [27],3
same,Blackgrass plant response rating,[2]; [21],5
same,Blackgrass plant response rating,[2]; [22],0
same,Blackgrass plant response rating,[2]; [24],4
same,B. signalgrass plant response rating,"[3]; Postemergence, Rate 62 g/ha, scale 0 to 10, 0 is no effect, 10 is complete control",0
same,B. signalgrass plant response rating,[3]; [25],0
same,B. signalgrass plant response rating,[3]; [18],1
same,"Plant response rating, B. signalgrass",[3]; [26],5
same,"Plant response rating, B. signalgrass",[3]; [27],7
same,B. signalgrass plant response rating,[3]; [21],7
same,B. signalgrass plant response rating,"[3]; Rate 125 g/ha, Postemergence, scale 0 to 10, 0 no effect, 10 complete control",0
same,B. signalgrass plant response rating,"[3]; Rate 500 g/ha, Postemergence, scale of 0 to 10 where 0 is no effect and 10 is complete control",2
same,Soybean plant response rating,[4]; [17],4
same,Soybean plant response rating,[4]; [18],0
same,"Plant response rating, Soybean",[4]; [26],0
same,"Plant response rating, Soybean",[4]; [27],0
same,Soybean plant response rating,[4]; [21],0
same,Soybean plant response rating,[4]; [22],4
same,"Plant response rating, Soybean",[4]; [28],4
same,Soybean plant response rating,[4]; [24],6
same,Corn plant response rating,[5]; [17],0
same,Corn plant response rating,[5]; [25],0
same,Corn plant response rating,[5]; [18],0
same,"Plant response rating, Corn",[5]; [26],0
same,"Plant response rating, Corn",[5]; [27],0
same,Corn plant response rating,[5]; [21],0
same,Corn plant response rating,[5]; [22],0
same,Corn plant response rating,[5]; [24],2
same,Crabgrass plant response rating,[6]; [17],4
same,Crabgrass plant response rating,[6]; [25],6
same,Crabgrass plant response rating,[6]; [18],2
same,"Plant response rating, Crabgrass",[6]; [26],6
same,"Plant response rating, Crabgrass",[6]; [27],9
same,Crabgrass plant response rating,[6]; [22],0
same,Crabgrass plant response rating,[6]; [24],9
same,Velvetleaf plant response rating,[7]; [17],0
same,Velvetleaf plant response rating,[7]; [18],0
same,Velvetleaf plant response rating (0 to 10 scale),[7]; [19],0
same,"Plant response rating, Velvetleaf",[7]; [20],3
same,Velvetleaf plant response rating,[7]; [21],3
same,Velvetleaf plant response rating,[7]; [22],0
same,"Plant response rating, Velvetleaf",[7]; [23],1
same,Velvetleaf plant response rating,[7]; [24],4
same,Ducksalad plant response rating,[8]; [29],0
same,"Plant response rating, Ducksalad",[8]; [30],0
same,Ducksalad plant response rating,[8]; [31],0
same,Ducksalad plant response rating,[8]; [32],0
same,Bedstraw plant response rating,[9]; [25],0
same,Bedstraw plant response rating,[9]; [18],0
same,"Plant response rating, Bedstraw",[9]; [26],0
same,"Plant response rating, Bedstraw",[9]; [27],0
same,Bedstraw plant response rating,[9]; [21],0
same,Nutsedge plant response rating,[10]; [17],0
same,Nutsedge plant response rating,[10]; [25],0
same,Nutsedge plant response rating,[10]; [18],0
same,"Plant response rating, Nutsedge",[10]; [26],0
same,"Plant response rating, Nutsedge",[10]; [27],0
same,Nutsedge plant response rating,[10]; [21],0
same,Nutsedge plant response rating,[10]; [22],0
same,Nutsedge plant response rating,[10]; [24],0
same,S. Flatsedge plant response rating,"[11]; Pre-emergence, Rate 1000 g/ha, scale 0 to 10 (0 no effect, 10 complete control)",0
same,S. Flatsedge plant response rating,[11]; [29],0
same,"Plant response rating, S. Flatsedge",[11]; [30],0
same,S. Flatsedge plant response rating,[11]; [32],0
same,Rice plant response rating,[12]; [29],0
same,"Plant response rating, Rice",[12]; [30],0
same,Rice plant response rating,[12]; [31],0
same,Rice plant response rating,[12]; [32],0
same,Redroot pigweed plant response rating,[13]; [17],0
same,Redroot pigweed plant response rating,[13]; [18],0
same,"Plant response rating, Redroot pigweed",[13]; [26],0
same,"Plant response rating, Redroot pigweed",[13]; [27],6
same,Redroot pigweed plant response rating,[13]; [21],7
same,Redroot pigweed plant response rating,[13]; [22],0
same,"Plant response rating, Redroot pigweed",[13]; [28],2
same,Redroot pigweed plant response rating,[13]; [24],4
same,Sugarbeets plant response rating,[14]; [17],2
same,Sugarbeets plant response rating,[14]; [18],0
same,Sugarbeets plant response rating (0 to 10 scale),[14]; [19],0
same,"Plant response rating, Sugarbeets",[14]; [20],0
same,Sugarbeets plant response rating,[14]; [21],4
same,Sugarbeets plant response rating,[14]; [22],1
same,"Plant response rating, Sugarbeets",[14]; [23],2
same,Sugarbeets plant response rating,[14]; [24],3
same,Rape plant response rating,[15]; [17],0
same,Rape plant response rating,[15]; [25],1
same,Rape plant response rating,[15]; [18],0
same,"Plant response rating, Rape",[15]; [26],0
same,"Plant response rating, Rape",[15]; [27],0
same,Rape plant response rating,[15]; [21],0
same,Rape plant response rating,[15]; [22],0
same,Rape plant response rating,[15]; [24],3
same,Wheat plant response rating,[16]; [17],0
same,Wheat plant response rating,[16]; [18],0
same,Wheat plant response rating (0 to 10 scale),[16]; [19],0
same,"Plant response rating, Wheat",[16]; [20],0
same,Wheat plant response rating,[16]; [21],2
same,Wheat plant response rating,[16]; [22],0
same,"Plant response rating, Wheat",[16]; [23],0
same,Wheat plant response rating,[16]; [24],0
